Measured values published in ChEMBL document CHEMBL1255557, “Heterobiaryl and heterobiaryl ether derived M5 positive allosteric modulators” (Bioorg Med Chem Lett, 2010).
Activity calls are given as the source filed them. The calls are words filed in the database; no cut-off is given here.

What was measured:
[1] = biological target: T1, Muscarinic acetylcholine receptor M5 (Homo sapiens, UniProt P08912); assay: Positive allosteric modulation of muscarinic M5 receptor expressed in CHO cells assessed as effect on acetylcholine-induced intracellular calcium mobilization after 1 hr by FLIPR assay; type: functional, cell-based
T1 sequence (P08912 whole entry): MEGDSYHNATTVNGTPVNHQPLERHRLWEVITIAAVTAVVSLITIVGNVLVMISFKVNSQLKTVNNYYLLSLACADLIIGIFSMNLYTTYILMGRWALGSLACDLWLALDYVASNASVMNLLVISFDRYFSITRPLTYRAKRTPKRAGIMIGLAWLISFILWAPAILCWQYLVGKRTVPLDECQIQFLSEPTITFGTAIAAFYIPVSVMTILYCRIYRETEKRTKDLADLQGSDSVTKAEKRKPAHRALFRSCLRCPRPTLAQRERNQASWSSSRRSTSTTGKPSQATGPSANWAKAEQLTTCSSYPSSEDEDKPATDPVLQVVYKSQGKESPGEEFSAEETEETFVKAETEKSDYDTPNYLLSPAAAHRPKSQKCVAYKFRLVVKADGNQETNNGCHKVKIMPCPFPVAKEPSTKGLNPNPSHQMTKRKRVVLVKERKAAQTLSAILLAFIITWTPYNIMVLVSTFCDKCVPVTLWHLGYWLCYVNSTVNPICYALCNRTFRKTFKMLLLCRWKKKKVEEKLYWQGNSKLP

[2] = biological target: T2, Muscarinic acetylcholine receptor M2 (Homo sapiens, UniProt P08172); assay: Positive allosteric modulation of muscarinic M2 receptor expressed in CHO cells co-expressing Gqi5 assessed as effect on acetylcholine-induced intracellular calcium mobilization after 1 hr by FLIPR assay
T2 sequence (P08172 whole entry): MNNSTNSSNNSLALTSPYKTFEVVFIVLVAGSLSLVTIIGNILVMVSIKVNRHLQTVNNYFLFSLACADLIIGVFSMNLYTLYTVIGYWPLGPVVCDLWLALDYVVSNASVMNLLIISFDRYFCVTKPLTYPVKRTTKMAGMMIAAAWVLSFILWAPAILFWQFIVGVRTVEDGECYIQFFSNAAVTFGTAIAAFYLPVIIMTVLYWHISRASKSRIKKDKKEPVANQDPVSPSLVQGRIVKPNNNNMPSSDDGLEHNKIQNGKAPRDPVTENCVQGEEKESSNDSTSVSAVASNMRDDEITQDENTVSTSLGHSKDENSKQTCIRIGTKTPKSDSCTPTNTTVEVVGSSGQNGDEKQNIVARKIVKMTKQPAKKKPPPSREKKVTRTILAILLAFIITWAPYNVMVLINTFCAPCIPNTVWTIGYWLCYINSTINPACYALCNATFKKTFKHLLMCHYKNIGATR

[3] = biological target: T3, Muscarinic acetylcholine receptor M4 (Homo sapiens, UniProt P08173); assay: Positive allosteric modulation of muscarinic M4 receptor expressed in CHO cells co-expressing Gqi5 assessed as effect on acetylcholine-induced intracellular calcium mobilization after 1 hr by FLIPR assay; type: functional, cell-based
T3 sequence (P08173 whole entry): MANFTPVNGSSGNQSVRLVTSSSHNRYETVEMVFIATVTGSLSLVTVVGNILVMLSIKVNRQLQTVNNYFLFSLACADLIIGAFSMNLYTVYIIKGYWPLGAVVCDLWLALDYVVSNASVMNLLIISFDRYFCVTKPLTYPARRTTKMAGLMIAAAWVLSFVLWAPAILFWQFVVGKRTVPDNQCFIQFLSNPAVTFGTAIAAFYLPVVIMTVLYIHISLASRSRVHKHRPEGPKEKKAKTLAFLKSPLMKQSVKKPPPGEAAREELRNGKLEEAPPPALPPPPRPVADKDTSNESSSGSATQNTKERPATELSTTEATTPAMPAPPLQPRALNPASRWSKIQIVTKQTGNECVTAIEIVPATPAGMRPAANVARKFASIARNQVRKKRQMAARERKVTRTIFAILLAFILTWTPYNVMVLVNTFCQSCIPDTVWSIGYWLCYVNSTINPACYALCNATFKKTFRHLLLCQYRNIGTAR

[4] = biological target: Sodium-dependent noradrenaline transporter (Homo sapiens) (UniProt P23975); assay: Inhibition of NET
Sequence of Sodium-dependent noradrenaline transporter (Homo sapiens) (P23975 whole entry): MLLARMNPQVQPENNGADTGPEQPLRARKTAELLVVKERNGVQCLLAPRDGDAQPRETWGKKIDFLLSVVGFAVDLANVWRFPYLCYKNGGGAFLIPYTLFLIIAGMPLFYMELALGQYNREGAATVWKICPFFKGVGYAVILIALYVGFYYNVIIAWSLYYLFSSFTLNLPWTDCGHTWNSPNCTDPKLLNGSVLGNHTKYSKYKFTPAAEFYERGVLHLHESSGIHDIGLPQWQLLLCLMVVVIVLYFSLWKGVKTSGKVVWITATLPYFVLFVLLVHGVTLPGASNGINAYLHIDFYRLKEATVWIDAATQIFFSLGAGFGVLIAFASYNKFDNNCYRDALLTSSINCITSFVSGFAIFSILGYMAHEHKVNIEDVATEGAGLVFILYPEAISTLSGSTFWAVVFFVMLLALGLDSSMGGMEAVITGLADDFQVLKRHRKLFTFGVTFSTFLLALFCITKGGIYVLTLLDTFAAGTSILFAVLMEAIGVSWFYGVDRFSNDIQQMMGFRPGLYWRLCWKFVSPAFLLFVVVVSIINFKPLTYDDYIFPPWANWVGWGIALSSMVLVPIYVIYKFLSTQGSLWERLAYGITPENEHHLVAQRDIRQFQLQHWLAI

[5] = biological target: Muscarinic acetylcholine receptor M3 (Homo sapiens) (UniProt P20309); assay: Positive allosteric modulation of muscarinic M3 receptor expressed in CHO cells assessed as potentiation of acetylcholine-induced intracellular calcium mobilization at 30 uM after 1 hr by FLIPR assay relative to acetylcholine; type: functional, cell-based
Sequence of Muscarinic acetylcholine receptor M3 (Homo sapiens) (P20309 whole entry, looked up): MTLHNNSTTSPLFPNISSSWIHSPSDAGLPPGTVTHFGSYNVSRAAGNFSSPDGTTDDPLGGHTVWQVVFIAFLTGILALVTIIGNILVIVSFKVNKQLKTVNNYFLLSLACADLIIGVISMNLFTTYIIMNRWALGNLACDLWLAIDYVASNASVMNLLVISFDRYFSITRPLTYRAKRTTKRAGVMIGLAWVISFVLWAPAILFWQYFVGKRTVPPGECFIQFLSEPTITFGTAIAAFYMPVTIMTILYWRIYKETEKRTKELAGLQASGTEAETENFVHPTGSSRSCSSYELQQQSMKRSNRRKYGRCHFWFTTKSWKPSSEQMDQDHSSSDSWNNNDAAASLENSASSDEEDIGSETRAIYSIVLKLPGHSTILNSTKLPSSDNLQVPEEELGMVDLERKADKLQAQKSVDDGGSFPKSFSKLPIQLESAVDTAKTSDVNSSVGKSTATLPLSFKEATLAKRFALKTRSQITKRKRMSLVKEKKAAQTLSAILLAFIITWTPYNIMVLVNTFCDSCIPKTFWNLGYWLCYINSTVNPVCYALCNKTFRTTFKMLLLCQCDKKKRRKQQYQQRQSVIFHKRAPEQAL

[6] = biological target: T4, Muscarinic acetylcholine receptor M2 (Homo sapiens) (UniProt P08172); assay: Positive allosteric modulation of muscarinic M2 receptor expressed in CHO cells co-expressing Gqi5 assessed as potentiation of acetylcholine-induced intracellular calcium mobilization at 30 uM after 1 hr by FLIPR assay relative to acetylcholine; type: functional, cell-based
T4 sequence (whole entry): T2 sequence (P08172 whole entry)

[7] = biological target: T5, Muscarinic acetylcholine receptor M1 (Homo sapiens) (UniProt P11229); assay: Positive allosteric modulation of muscarinic M1 receptor expressed in CHO cells assessed as potentiation of acetylcholine-induced intracellular calcium mobilization at 30 uM after 1 hr by FLIPR assay relative to acetylcholine; type: functional, cell-based
T5 sequence (whole entry): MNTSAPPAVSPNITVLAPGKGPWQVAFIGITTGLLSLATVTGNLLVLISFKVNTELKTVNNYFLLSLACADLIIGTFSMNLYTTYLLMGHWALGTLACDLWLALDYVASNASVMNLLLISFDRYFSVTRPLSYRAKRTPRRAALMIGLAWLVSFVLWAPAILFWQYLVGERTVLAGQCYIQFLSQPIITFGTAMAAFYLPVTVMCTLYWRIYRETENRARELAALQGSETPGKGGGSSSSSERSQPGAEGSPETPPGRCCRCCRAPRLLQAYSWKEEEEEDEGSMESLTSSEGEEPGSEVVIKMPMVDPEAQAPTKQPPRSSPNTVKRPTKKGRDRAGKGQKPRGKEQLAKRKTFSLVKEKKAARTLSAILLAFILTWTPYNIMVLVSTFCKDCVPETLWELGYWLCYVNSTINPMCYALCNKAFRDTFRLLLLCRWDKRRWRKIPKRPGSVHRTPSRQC

[8] = biological target: T6, Muscarinic acetylcholine receptor M5 (Homo sapiens) (UniProt P08912); assay: Positive allosteric modulation of muscarinic M5 receptor expressed in CHO cells assessed as potentiation of acetylcholine-induced intracellular calcium mobilization at 30 uM after 1 hr by FLIPR assay relative to acetylcholine; type: functional, cell-based
T6 sequence (whole entry): T1 sequence (P08912 whole entry)

[9] = biological target: T6, Muscarinic acetylcholine receptor M5 (Homo sapiens); assay: Positive allosteric modulation of muscarinic M5 receptor expressed in CHO cells assessed as effect on acetylcholine-induced intracellular calcium mobilization after 1 hr by FLIPR assay relative to acetylcholine; type: functional, cell-based
[10] = biological target: T7, Muscarinic acetylcholine receptor M4 (Homo sapiens) (UniProt P08173); assay: Positive allosteric modulation of muscarinic M4 receptor expressed in CHO cells co-expressing Gqi5 assessed as potentiation of acetylcholine-induced intracellular calcium mobilization at 30 uM after 1 hr by FLIPR assay relative to acetylcholine; type: functional, cell-based
T7 sequence (whole entry): T3 sequence (P08173 whole entry)

[11] = biological target: Histamine H1 receptor (Homo sapiens) (UniProt P35367); assay: Inhibition of histamine H1 receptor
Sequence of Histamine H1 receptor (Homo sapiens) (P35367 whole entry): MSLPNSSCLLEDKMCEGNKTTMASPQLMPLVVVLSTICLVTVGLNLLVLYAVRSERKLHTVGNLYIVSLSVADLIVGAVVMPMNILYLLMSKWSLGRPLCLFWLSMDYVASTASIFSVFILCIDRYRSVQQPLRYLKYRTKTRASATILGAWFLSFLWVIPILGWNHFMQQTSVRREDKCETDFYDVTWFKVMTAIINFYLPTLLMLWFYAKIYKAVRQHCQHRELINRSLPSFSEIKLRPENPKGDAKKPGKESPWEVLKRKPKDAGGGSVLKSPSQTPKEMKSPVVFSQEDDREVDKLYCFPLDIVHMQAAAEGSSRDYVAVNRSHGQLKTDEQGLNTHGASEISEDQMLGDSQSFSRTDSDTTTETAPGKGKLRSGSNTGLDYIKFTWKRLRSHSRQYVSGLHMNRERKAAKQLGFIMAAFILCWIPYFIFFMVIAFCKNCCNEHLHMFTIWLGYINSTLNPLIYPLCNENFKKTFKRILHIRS

[12] = Partition coefficient, log P of the compound; type: physicochemical; conditions: octanol/water

Row | EC50 [1] | EC50 [2] | EC50 [3] | inhibition [4] | Activity [5] | Activity [6] | Activity [7] | fold change (FC) [8] | Emax [9] | Activity [10] | inhibition [11] | logP [12] | SMILES
1 | 4.6 µM | > 30 µM | > 30 µM |  |  |  |  |  |  |  |  |  | O=C1C(=O)N(Cc2ccc(Br)cc2)c2ccccc21
2 | 1.5 µM |  |  | Active | inactive | inactive | inactive | 6 | 62% | inactive | Active |  | O=C1C(=O)N(Cc2ccc(Oc3cccc(F)n3)cc2)c2ccc(OC(F)(F)F)cc21
3 | 3.8 µM |  |  |  | inactive | inactive | inactive | 14 | 76% | inactive |  | 3.6 | O=C1C(=O)N(Cc2ccc(-c3ccccc3)nc2)c2ccc(OC(F)(F)F)cc21
